Laboratory results taken from paper PMC7912796, “Design, Synthesis, Anticancer Activity, and Solid Lipid Nanoparticle Formulation of Indole- and Benzimidazole-Based Compounds as Pro-Apoptotic Agents Targeting Bcl-2 Protein” (Pharmaceuticals, 2021).

Columns and labels:
[1] = tested on: MDA-MB-231/breast cancer cell line; assay: DNA fragmentation assay; format: cell-based, human; conditions: 13 µM, 48 h and 72 h, agarose gel ladder
Method: In order to delineate the mechanistic aspects of MDA-MB-231/breast cancer cell death mediated by 8b, the DNA fragmentation assay was conducted as being highly characteristic for apoptosis. […] A typical ladder pattern of internucleosomal fragmentation was observed from cell homogenates within both incubation periods (Figure 8). Such findings further confirm the significant activity of 8b as a potent inducer of apoptosis.
DNA isolation was performed through planting MDA-MB-231/breast cells at 0.16x10^6 density, prior to incubation at 37 °C/humidified 5% CO2 overnight. Following 48 h exposure time, cells were harvested, washed and lysed via DNA-extraction buffer at 37 °C overnight. The lysate was incubated after that with 100 μg/mL […] (Cat.#: 9097.1; Carl-Roth^TM, Karlsruhe, Germany) at 37 °C for 2 h, which was followed by three extraction processes using phenol:CHCl3 (1:1 v/v) (Bioflux^TM, Selangor, Malaysia). A consequent re-extraction was done using CHCl3 and then the organic solvent was centrifuged for 5 min at 12,000 rpm within 4 °C conditions. Extracted DNA was precipitated via ice-cold 3 M sodium acetate and absolute ethanol for 1 h at –20 °C, which was then proceeded through centrifugation (15 min—at 12,000 rpm—4 °C). […]

[2] = tested on: human cytochrome c protein; assay: ELISA protein level; format: cell-based; conditions: 13 μM, 48 h, MDA-MB-231; control 0.295 ng/mL
Method: Dissection of the compound’s proapoptotic activity was proceeded through gene expression analysis for key genes, controlling apoptosis pathway, as well as protein level determination. Following 8b treatment for 48 h, alterations within MDA-MB-231/breast cancer cell expression of Bcl-2, Bax, caspase-3, -8, and -9 genes, as well as cytochrome c and class-III β-tubulin proteins levels were determined using real-time polymerase chain reaction (RT-PCR) or ELISA technique, respectively. Typically, Bcl-2, Bax, caspases, and cytochrome c proteins contributes within the regulation of apoptotic signaling. Acting as apoptotic activator (Bax) or inhibitor (Bcl-2), the Bcl-2 family proteins play their significant role in apoptosis. The caspases family are cysteine proteases being classified as either executioners; caspase-3, -6, or -7 or initiators; caspase-8 and -9 [36]. Regrading caspase-8, its activation is proceeded through extrinsic death-receptor dependent apoptotic pathway, while, caspase-9 activation is within the event of intrinsic mitochondrial cytochrome c leakage. Additionally, participation of activated caspase-3 is to be essential for caspase-8 activation. […]
Quantikine® Colorimetric Sandwich-ELISA Kit (Cat.#: DCTC0; R&D Systems, Minneapolis, MN, USA) was used for quantitating the targeted human cytochrome c protein through immunoassay protocol. […]

[3] = In-vitro drug release, dialysis method; format: physicochemical; conditions: over 48 h, PBS pH 7.4, 37 °C, dialysis bag
Method: The in-vitro drug-release behavior of SLNs was determined through the dialysis method. The release of drug from SLNs was done using phosphate buffer saline (pH 7.4) as dissolution medium. An accurate amount of SLNs (equivalent to 5 mg drug) was taken and placed within the dialysis bag (MWCO: 12 kDa). The dialysis bag was closed from both ends and placed within 75 mL Phosphate Buffer Saline (pH 7.4) as dissolution medium. The analysis was conducted while maintaining the dissolution medium at 37 ± 1 °C and being stirred via magnetic stirrer at 100 rpm. Dissolution medium samples (2 mL) were withdrawn at pre-determined time intervals (0.5, 1, 2, 4, 8, 12, 24 and 48 h). Equal volumes of fresh dissolution medium were added to replace the withdrawn volumes for keeping sink condition. The experiment was done in triplicate and the amount of drug release was measured following the same procedure as in the entrapment efficiency section.

[4] = tested on: MDA-MB-231/breast cancer cells; assay: Morphological assessment; format: cell-based, human; conditions: 0.1-100 µM, 48 h, phase-contrast microscope
Method: The impact of 8b on cancerous cellular morphology was evaluated over different concentrations following 48 h exposure time. In MDA-MB-231/breast cancer cells, normal membrane integrity and control group nucleus morphology was depicted for cells within vehicle negative control group (Figure 4A). […] At 100 µM concentration, the cell number became highly declined and great loss of cellular polyhedral shape was observed as cells acquired the tentacled spindle-shaped morphology (Figure 4E). These morphological changes were more drastic with 8b as compared to 5-FU for similar concentrations (100 µM) (Figure 4F).
The impact of this tested final compounds on the morphology of treated MDA-MB-231/breast cancer cell line was investigated, through planting cells within 6-well plates and subsequently incubated with 0.1, 1, 10, 100 µM of 8b […]. Variations within the cells’ morphology were identified via Olympus®-CKX53 Inverted Metallurgical light microscope (Olympus^TM, Center Valley, PA, USA), snapped by Olympus® Digital Camera, and analyzed by OLYMPUS® Stream image analysis software.

A549/lung adenocarcinoma = assay: Morphological assessment; format: cell-based, human; conditions: 0.1-100 µM (5-FU 100 µM), 48 h, phase-contrast microscope

total released amount of drug [3]: 21.48 ± 1.17%
SMILES: CCCc1ccc(-c2nn(-c3ccccc3)cc2C=NNC(=O)c2cc3ccccc3[nH]2)cc1 [Compound 8b, N′-((1-phenyl-3-(4-propylphenyl)-1H-pyrazol-4-yl)methylene)-1H-indole-2-carbohydrazide]
DNA fragmentation [1]: Significant DNA fragmentation | cytochrome c level [2]: 0.675 ng/mL | cell morphology alterations [4]: significant cell morphology alteration, intercellular space dilatation, and cellular shrinkage | cell morphology alterations (A549/lung adenocarcinoma): Comparable cell morphology changes
